Read-outs that look alike come from different tables or passages of the source.
Experiments:
rodent [1] = details: cited from earlier work; for Carcinogenicity Studies: rodent, ref [20]-[41], Table 2
[2] = tested on: human lymphoblastoid TK6 cells, thymidine kinase gene; assay: TK gene mutation assay (TK6 assay, OECD TG490); details: for TK6 assay overall judgment: all treatments; for TK mutation assay, With S9 / TK mutation assay, Without S9: short-term 4 h; for TK mutation assay, With S9: with rat liver S9
rodent [3] = details: chromosomal Aberration test, micronucleus test, transgenic rodent gene mutation assay; ref [48], [58]–[63]; cited from earlier work
[4] = tested on: TA1538, TA100, TA98, TA97, TA1535; details: cited from earlier work; for Bacterial reverse mutation assay, With S9 / Bacterial reverse mutation assay, Without S9: ref [18]-[40], Table 2
TK6 cells [5] = details: human
[6] = tested on: L5178Y mouse lymphoma cells; details: cited from earlier work; for MLA (TK gene locus), With S9 / MLA (TK gene locus), Without S9: [46]-[53], Table 3
[7] = tested on: human lymphoblastoid TK6 cells, thymidine kinase gene
TK6 cells [8] = assay: Cytotoxicity in the TK6 assay (CE, RS, RSG, RTG); details: for CE0 / RS0 / Adjusted CE0 / Adjusted CE0(%) / CE0 (%) / RS0 (%): Day 0
[9] = Short treatment, +S9 mix, 24.1 μg/mL
[10] = Short treatment, +S9 mix, 48.1 μg/mL
[11] = Short treatment, +S9 mix, 96 μg/mL
[12] = Short treatment, +S9 mix, 770 μg/mL
[13] = Short treatment, -S9 mix, 24.10 μg/mL
[14] = Short treatment, -S9 mix, 48.10 μg/mL
[15] = Short treatment, -S9 mix, 96.30 μg/mL
[16] = dose 6.02 μg/mL, 24h treatment, -S9 mix
[17] = dose 24.10 μg/mL, 24h treatment, -S9 mix
[18] = dose 24.1 μg/mL, short treatment, +S9 mix
[19] = dose 48.1 μg/mL, 24h treatment, -S9 mix
[20] = dose 48.1 μg/mL, short treatment, +S9 mix
[21] = dose 96 μg/mL, short treatment, +S9 mix
[22] = dose 96.3 μg/mL, 24h treatment, -S9 mix
[23] = Long-term treatment without metabolic activation
[24] = Short-term treatment with metabolic activation
[25] = Short-term treatment without metabolic activation

O=[N+]([O-])c1cccc2ccccc12 [1-Nitronaphthalene]
Carcinogenicity Studies (rodent [1]): Neg | TK6 assay result (mutant frequency increase, judgment) ([2]; 4h treatment (+S9)): significant increase in MF | TK6 assay result (mutant frequency increase, judgment) ([2]; 4h treatment (-S9)): significant increase in MF | TK6 assay overall judgment [2]: positive | TK mutation assay, With S9 [2]: Pos | TK mutation assay, Without S9 ([2]; without S9): Pos | in vivo genotoxicity tests (rodent [3]): negative | The Highest Specific Activity and the Strain ([4]; TA100 with S9, ref Table 2): 12,500 revertants/mg | The Highest Specific Activity and the Strain ([4]; TA100 without S9, ref Table 2): 14,700 revertants/mg | specific activity values obtained from Ames test ([4]; ref Table 2): exceeding 10,000 revertants per milligram | Bacterial reverse mutation assay, With S9 [4]: Pos | Bacterial reverse mutation assay, Without S9 [4]: Pos

Cc1cc(N)ccc1N [2,5-Diaminotoluene]
Carcinogenicity Studies (rodent [1]): Neg | CE3 (cell viability on Day 3) (TK6 cells [5]): 92.1% | cytotoxicity (TK6 cells [5]): About 80% | MLA result ([6]; NTP database, ref [54]): positive | MLA result ([6]; reported by SCCS, ref [46]): negative | MLA (TK gene locus), With S9 ([6]; ref [27]): Inconclusive^c | MLA (TK gene locus), Without S9 ([6]; ref [27]): Inconclusive^c | TK6 assay overall judgment [7]: negative | TK mutation assay, Long term [7]: Neg | TK mutation assay, With S9 [7]: Neg | TK mutation assay, Without S9 [7]: Neg

CC(=O)Nc1ccc(C(=O)CCl)cc1 [4-(Chloroacetyl)-acetanilide, 4-(Chloroacetyl)acetanilide]
Carcinogenicity Studies (rodent [1]): Neg | TK6 assay overall judgment [7]: positive | TK mutation assay, Long term [7]: Pos | TK mutation assay, With S9 [7]: Neg | TK mutation assay, Without S9 [7]: Pos | linear trend test of MF [7]: no statistically significant linear trends | in vivo genotoxicity tests (rodent [3]): negative | The Highest Specific Activity and the Strain ([4]; TA1538 with S9, ref [18], [19]): 600 revertants/mg in TA1538 with S9 | Bacterial reverse mutation assay, With S9 [4]: Pos | Bacterial reverse mutation assay, Without S9 [4]: Neg

Nc1ccc([N+](=O)[O-])cc1N [4-Nitro-o-phenylenediamine]
Carcinogenicity Studies (rodent [1]): Neg | CE0 (TK6 cells [8]; [9]): 81.6% | RS0 (TK6 cells [8]; [9]): 97.0% | CE3 (TK6 cells [8]; Short treatment, +S9 mix, 24.1 μg/mL, Day 3): 92.1% | Daily cell growth Day 1×2×3 (TK6 cells [8]; [10]): 13.43 | RSG (TK6 cells [8]; [10]): 0.703 | Adjusted CE0 (TK6 cells [8]; [10]): 81.2% | CE0 (TK6 cells [8]; [10]): 84.1% | RS0 (TK6 cells [8]; [10]): 101.5% | CE3 (TK6 cells [8]; Short treatment, +S9 mix, 48.1 μg/mL, Day 3): 84.1% | Daily cell growth Day 1×2×3 (TK6 cells [8]; [11]): 13.64 | RSG (TK6 cells [8]; [11]): 0.714 | Adjusted CE0 (TK6 cells [8]; [11]): 62.7% | CE0 (TK6 cells [8]; [11]): 66.7% | RS0 (TK6 cells [8]; [11]): 78.3% | CE3 (TK6 cells [8]; Short treatment, +S9 mix, 96 μg/mL, Day 3): 72.7% | Daily cell growth Day 1×2×3 (TK6 cells [8]; [12]): 1.65 | RSG (TK6 cells [8]; [12]): 0.086 | Adjusted CE0 (TK6 cells [8]; [12]): 29.1% | CE0 (TK6 cells [8]; [12]): 42.0% | RS0 (TK6 cells [8]; [12]): 36.3% | CE3 (TK6 cells [8]; [13]): 1.160 | RS (TK6 cells [8]; [13]): 79.4 | CE0 (TK6 cells [8]; [13]): 74.8% | RS0 (TK6 cells [8]; [13]): 79.4% | CE3 (TK6 cells [8]; Short treatment, -S9 mix, 24.10 μg/mL, Day 3): 116.0% | CE3 (TK6 cells [8]; [14]): 0.866 | Daily cell growth Day 1×2×3 (TK6 cells [8]; [14]): 13.83 | RS (TK6 cells [8]; [14]): 65.5 | RSG (TK6 cells [8]; [14]): 0.667 | Adjusted CE0 (TK6 cells [8]; [14]): 56.8% | CE0 (TK6 cells [8]; [14]): 61.3% | RS0 (TK6 cells [8]; [14]): 65.5% | CE3 (TK6 cells [8]; Short treatment, -S9 mix, 48.10 μg/mL, Day 3): 86.6% | CE3 (TK6 cells [8]; [15]): 0.950 | Daily cell growth Day 1×2×3 (TK6 cells [8]; [15]): 13.07 | RS (TK6 cells [8]; [15]): 64.6 | RSG (TK6 cells [8]; [15]): 0.630 | Adjusted CE0 (TK6 cells [8]; [15]): 56.1% | CE0 (TK6 cells [8]; [15]): 63.1% | RS0 (TK6 cells [8]; [15]): 64.6% | CE3 (TK6 cells [8]; Short treatment, -S9 mix, 96.30 μg/mL, Day 3): 95.0% | CE3 (TK6 cells [8]; [16]): 0.866 | Daily cell growth Day 1×2×3 (TK6 cells [8]; [16]): 17.46 | RSG (TK6 cells [8]; [16]): 0.993 | Adjusted CE0(%) (TK6 cells [8]; [16]): 178.3% | CE0 (%) (TK6 cells [8]; [16]): 81.6% | RS0 (%) (TK6 cells [8]; [16]): 79.6% | CE3 (%) (TK6 cells [8]; dose 6.02 μg/mL, 24h treatment, -S9 mix, Day 3): 86.6% | CE3 (TK6 cells [8]; [17]): 1.012 | CE0 (%) (TK6 cells [8]; [17]): 95.0% | RS0 (%) (TK6 cells [8]; [17]): 73.2% | CE3 (%) (TK6 cells [8]; dose 24.10 μg/mL, 24h treatment, -S9 mix, Day 3): 101.2% | CE3 (TK6 cells [8]; [18]): 0.921 | RS (TK6 cells [8]; [18]): 97.0 | CE3 (TK6 cells [8]; [19]): 0.950 | Daily cell growth Day 1×2×3 (TK6 cells [8]; [19]): 11.59 | RSG (TK6 cells [8]; [19]): 0.659 | Adjusted CE0(%) (TK6 cells [8]; [19]): 99.3% | CE0 (%) (TK6 cells [8]; [19]): 74.8% | RS0 (%) (TK6 cells [8]; [19]): 44.3% | CE3 (%) (TK6 cells [8]; dose 48.1 μg/mL, 24h treatment, -S9 mix, Day 3): 95.0% | CE3 (TK6 cells [8]; [20]): 0.841 | RS (TK6 cells [8]; [20]): 101.5 | CE3 (TK6 cells [8]; [21]): 0.727 | RS (TK6 cells [8]; [21]): 78.3 | CE3 (TK6 cells [8]; [22]): 0.866 | Daily cell growth Day 1×2×3 (TK6 cells [8]; [22]): 9.04 | RSG (TK6 cells [8]; [22]): 0.514 | Adjusted CE0(%) (TK6 cells [8]; [22]): 55.5% | CE0 (%) (TK6 cells [8]; [22]): 59.6% | RS0 (%) (TK6 cells [8]; [22]): 24.8% | CE3 (%) (TK6 cells [8]; dose 96.3 μg/mL, 24h treatment, -S9 mix, Day 3): 86.6% | RS (TK6 cells [8]; dose 770 μg/mL, short treatment, +S9 mix): 36.3 | TK6 assay result (mutant frequency increase, judgment) ([2]; 4h treatment (-S9)): increased significantly | TK mutation assay, Long term ([2]; 24 h, without S9): Pos | TK6 assay result (mutant frequency increase, judgment) ([2]; 24h treatment (-S9)): increased significantly | Dunnett type test, test statistic [2, 23]: 3.866 | Trend test, test statistic [2, 23]: 2.800 | %SG [2, 13]: 54.1% | MF [2, 13]: 14.5 | %SG [2, 14]: 55.8% | MF [2, 14]: 17.4 | Mut. freq. N-MF [2, 14]: 7.7 ×10-6 | Mut. freq. S-MF [2, 14]: 9.7 ×10-6 | Mut. freq. T-MF [2, 14]: 17.4 ×10-6 | %SG [2, 15]: 62.6% | MF [2, 15]: 16.9 | Mut. freq. N-MF [2, 15]: 6.3 ×10-6 | Mut. freq. S-MF [2, 15]: 10.6 ×10-6 | Mut. freq. T-MF [2, 15]: 16.9 ×10-6 | Dunnett type test, test statistic [2, 24]: 3.458 | Trend test, test statistic [2, 24]: 1.593 | Dunnett type test, test statistic [2, 25]: 2.435 | Trend test, test statistic [2, 25]: 2.615 | TK6 assay overall judgment [2]: positive | %SG [2, 16]: 39.7% | Mut. freq. (×10-6) N-MF [2, 16]: 11.7 ×10-6 | Mut. freq. (×10-6) S-MF [2, 16]: 7.7 ×10-6 | Mut. freq. (×10-6) T-MF [2, 16]: 19.4 ×10-6 | %SG [2, 17]: 59.9% | %SG [2, 18]: 62.7% | %SG [2, 19]: 78.5% | Mut. freq. (×10-6) N-MF [2, 19]: 3.0 ×10-6 | Mut. freq. (×10-6) S-MF [2, 19]: 11.1 ×10-6 | Mut. freq. (×10-6) T-MF [2, 19]: 14.2 ×10-6 | %SG [2, 20]: 65.0% | Mut. freq. (×10-6) N-MF [2, 20]: 7.5 ×10-6 | Mut. freq. (×10-6) S-MF [2, 20]: 14.0 ×10-6 | Mut. freq. (×10-6) T-MF [2, 20]: 21.6 ×10-6 | %SG [2, 21]: 70.4% | Mut. freq. (×10-6) N-MF [2, 21]: 5.2 ×10-6 | Mut. freq. (×10-6) S-MF [2, 21]: 12.4 ×10-6 | Mut. freq. (×10-6) T-MF [2, 21]: 17.6 ×10-6 | %SG [2, 22]: 76.1% | Mut. freq. (×10-6) N-MF [2, 22]: 5.6 ×10-6 | Mut. freq. (×10-6) S-MF [2, 22]: 17.9 ×10-6 | Mut. freq. (×10-6) T-MF [2, 22]: 23.5 ×10-6 | TK mutation assay, With S9 [2]: Neg | TK mutation assay, Without S9 ([2]; without S9): Pos | MLA (TK gene locus), With S9 ([6]; ref [27]): Pos | MLA (TK gene locus), Without S9 ([6]; ref [27]): Pos | The Highest Specific Activity and the Strain ([4]; TA100 without S9, ref Table 2): 41,400 revertants/mg in TA100 without S9 | specific activity values obtained from Ames test ([4]; ref Table 2): exceeding 10,000 revertants per milligram | Bacterial reverse mutation assay, With S9 [4]: Pos | Bacterial reverse mutation assay, Without S9 [4]: Pos

O=[N+]([O-])c1cc(N(CCO)CCO)ccc1NCCO [HC Blue No.2]
carcinogenicity classification (rodent [1]; ref [84]): non-carcinogenic | Carcinogenicity Studies (rodent [1]): Neg | MLA (4 h) ([6]; presence of S9, ref [27], [29], [68]): positive | MLA (−S9) ([6]; substance with high purity, −S9, ref [27]): positive | MLA (TK gene locus), With S9 ([6]; ref [27]): Pos | MLA (TK gene locus), Without S9 ([6]; ref [27]): Pos | TK mutation assay, Long term [7]: Pos | TK mutation assay, With S9 [7]: Neg | TK mutation assay, Without S9 [7]: Neg | Trend test, test statistic [7]: 2.719 | The Highest Specific Activity and the Strain ([4]; TA98 with S9, ref Table 2): 153.6 revertants/mg in TA98 with S9 | Bacterial reverse mutation assay, With S9 [4]: Pos | Bacterial reverse mutation assay, Without S9 [4]: Pos

From paper PMC7937321 (Genes and Environment, 2021)
